SMILES strings stand for the structures. Converted amounts (≈) assume the structure as drawn.

From ChEMBL document CHEMBL3098096, “Design, synthesis and antibacterial activities of 5-(pyrazin-2-yl)-4H-1,2,4-triazole-3-thiol derivatives containing Schiff base formation as FabH inhibitory” (Bioorg Med Chem Lett, 2014) come the findings set out here.

One data set relates to NIH3T3. As to the kind of experiment: Cytotoxicity against mouse NIH/3T3 cells after 24 hrs by MTT assay. Type of data set: cell-based. The conditions noted are these: NIH3T3, 24 h. Background: Formazan colour is commonly taken as a measure of viable cells.
Data set [1] in a line: Toxicity in human erythrocytes assessed as hemolytic activity by spectrophotometric analysis. The conditions noted are these: erythrocyte. Type of data set: cell-based.
Data set [2] has as its target T1, 3-oxoacyl-[acyl-carrier-protein] synthase 3 (Escherichia coli, UniProt C3TDZ2).
T1 sequence (C3TDZ2 whole entry): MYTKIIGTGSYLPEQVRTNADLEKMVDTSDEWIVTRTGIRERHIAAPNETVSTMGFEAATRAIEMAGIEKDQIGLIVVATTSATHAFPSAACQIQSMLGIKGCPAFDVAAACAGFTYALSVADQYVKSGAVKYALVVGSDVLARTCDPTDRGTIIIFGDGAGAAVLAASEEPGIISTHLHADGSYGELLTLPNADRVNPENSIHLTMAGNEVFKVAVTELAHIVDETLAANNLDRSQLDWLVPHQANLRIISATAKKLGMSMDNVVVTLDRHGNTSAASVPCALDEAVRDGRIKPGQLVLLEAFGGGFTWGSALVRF
Put plainly: Inhibition of Escherichia coli FabH overexpressed in Escherichia coli DH10B cells assessed as incorporation of [3H] in the product after 25 mins by liquid scintillation counting analysis.

Data set [3] concerns Bacillus amyloliquefaciens. Put plainly: Antimicrobial activity against Bacillus amyloliquefaciens 23842 assessed as […] growth inhibition after 24 hrs by two-fold serial broth dilution method. The class given is functional. As to conditions: Bacillus amyloliquefaciens, 23842, 24 h. A general note: In broth dilution the organism is exposed to a series of concentrations in liquid medium.

The test system of a further data set is Bacillus subtilis. As to the kind of experiment: Antimicrobial activity against Bacillus subtilis ATCC 530 assessed as […] growth inhibition after 24 hrs by two-fold serial broth dilution method. Type of data set: functional. As to conditions: ATCC 530, 24 h.
Another data set concerns Staphylococcus aureus. Put plainly: Antimicrobial activity against Staphylococcus aureus ATCC 25923 assessed as […] growth inhibition after 24 hrs by two-fold serial broth dilution method. The conditions noted are these: ATCC 25923, 24 h. Type of data set: functional.
Another data set concerns Pseudomonas aeruginosa. Put plainly: Antimicrobial activity against Pseudomonas aeruginosa ATCC 27853 assessed as […] growth inhibition after 24 hrs by two-fold serial broth dilution method. Type of data set: functional. As to conditions: ATCC 27853, 24 h.
In another data set the test system is Escherichia coli. Put plainly: Antimicrobial activity against Escherichia coli ATCC 25922 assessed as […] growth inhibition after 24 hrs by two-fold serial broth dilution method. Type of data set: functional. As to conditions: ATCC 25922, 24 h.

What is called IC50 is the midpoint of a concentration-inhibition curve. In general, MIC refers to the least concentration at which growth counts as inhibited. For the compound `COc1ccc(/C=N/n2c(S)nnc2-c2cnccn2)cc1OC`, the IC50 in the data set on NIH3T3 worked out at 163 µM; in data set [2], 45.5 µM. The LC30 in data set [1] was over 10000 µg/mL. Further, the MIC in data set [3] is 25 µg/mL (≈ 73 µM); with Bacillus subtilis, 25 µg/mL (≈ 73 µM); in the data set on Staphylococcus aureus, 12.5 µg/mL (≈ 36.5 µM); in the data set on Pseudomonas aeruginosa it was 50 µg/mL (≈ 146 µM); in the data set on Escherichia coli, 25 µg/mL (≈ 73 µM).
Take `COc1cc(OC)c(OC)cc1/C=N/n1c(S)nnc1-c1cnccn1`: the figures for the IC50 (with NIH3T3; in data set [2]) were 142 µM and 12.8 µM, respectively. For the same compound, the LC30 in data set [1] is over 10000 µg/mL. Moreover, the MIC in data set [3] stood at 6.25 µg/mL (≈ 16.8 µM); with Bacillus subtilis, 3.13 µg/mL (≈ 8.4 µM); in the data set on Staphylococcus aureus, 25 µg/mL (≈ 67.1 µM); in the data set with Pseudomonas aeruginosa, 12.5 µg/mL (≈ 33.6 µM); in the data set with Escherichia coli it was 6.25 µg/mL (≈ 16.8 µM).
Regarding `COc1cc(/C=N/n2c(S)nnc2-c2cnccn2)cc(OC)c1OC`, the IC50 stood at 169 µM in the data set with NIH3T3 and 15.1 µM in data set [2]. Besides, in data set [1], the LC30 was over 10000 µg/mL. Also, the minimal inhibitory concentration (MIC) came to 25 µg/mL (≈ 67.1 µM) in data set [3]; 6.25 µg/mL (≈ 16.8 µM) in the data set with Bacillus subtilis; 12.5 µg/mL (≈ 33.6 µM) in the data set on Staphylococcus aureus; 12.5 µg/mL (≈ 33.6 µM) in the data set with Pseudomonas aeruginosa; 6.25 µg/mL (≈ 16.8 µM) in the data set with Escherichia coli.
Take `COc1ccccc1/C=N/n1c(S)nnc1-c1cnccn1`: the concentration for half-maximal inhibition (IC50) came to 173 µM with NIH3T3 and 22.9 µM in data set [2]. Moreover, the LC30 in data set [1] is over 10000 µg/mL. Further, the MIC came out at 25 µg/mL (≈ 80 µM) in data set [3]; 25 µg/mL (≈ 80 µM) in the data set with Bacillus subtilis; 25 µg/mL (≈ 80 µM) with Staphylococcus aureus; 25 µg/mL (≈ 80 µM) with Pseudomonas aeruginosa; 12.5 µg/mL (≈ 40 µM) with Escherichia coli.
As to `COc1cccc(/C=N/n2c(S)nnc2-c2cnccn2)c1`, the MIC is 50 µg/mL (≈ 160 µM) in data set [3]; 50 µg/mL (≈ 160 µM) in the data set with Bacillus subtilis; over 50 µg/mL in the data set on Staphylococcus aureus; 50 µg/mL (≈ 160 µM) with Pseudomonas aeruginosa; 25 µg/mL (≈ 80 µM) in the data set with Escherichia coli.
Turning to `O=[N+]([O-])c1ccc(/C=N/n2c(S)nnc2-c2cnccn2)cc1`, the MIC in data set [3] is 50 µg/mL (≈ 153 µM); in the data set with Bacillus subtilis, 25 µg/mL (≈ 76.4 µM); with Staphylococcus aureus, over 50 µg/mL; in the data set on Pseudomonas aeruginosa, 25 µg/mL (≈ 76.4 µM); in the data set with Escherichia coli it was 25 µg/mL (≈ 76.4 µM).
In the case of `Oc1ccc(/C=N/n2c(S)nnc2-c2cnccn2)cc1`, the IC50 with NIH3T3 worked out at 175 µM; in data set [2], 29.3 µM. Besides, in data set [1], the LC30 was over 10000 µg/mL. For the same compound, the MIC in data set [3] was 25 µg/mL (≈ 83.8 µM); with Bacillus subtilis it was 25 µg/mL (≈ 83.8 µM); with Staphylococcus aureus it was 50 µg/mL (≈ 168 µM); in the data set with Pseudomonas aeruginosa, 25 µg/mL (≈ 83.8 µM); in the data set on Escherichia coli, 12.5 µg/mL (≈ 41.9 µM).
For the compound `Oc1ccccc1/C=N/n1c(S)nnc1-c1cnccn1`, the figures for the IC50 (in the data set with NIH3T3; in data set [2]) were 131 µM and 5.2 µM, respectively. In addition, the LC30 in data set [1] was over 10000 µg/mL. The MIC in data set [3] was 0.78 µg/mL (≈ 2.61 µM); in the data set with Bacillus subtilis, 0.78 µg/mL (≈ 2.61 µM); in the data set on Staphylococcus aureus it was 1.56 µg/mL (≈ 5.23 µM); in the data set on Pseudomonas aeruginosa, 1.56 µg/mL (≈ 5.23 µM); in the data set with Escherichia coli, 0.39 µg/mL (≈ 1.31 µM).
As for `Oc1cccc(/C=N/n2c(S)nnc2-c2cnccn2)c1`, the IC50 in the data set with NIH3T3 was 151 µM; in data set [2], 48.3 µM. In addition, the LC30 in data set [1] was over 10000 µg/mL. Besides, the MIC in data set [3] was 50 µg/mL (≈ 168 µM); with Bacillus subtilis, 50 µg/mL (≈ 168 µM); in the data set with Staphylococcus aureus, over 50 µg/mL; with Pseudomonas aeruginosa, 25 µg/mL (≈ 83.8 µM); with Escherichia coli, 25 µg/mL (≈ 83.8 µM).
As for `Oc1ccc(/C=N/n2c(S)nnc2-c2cnccn2)cc1O`, the results for the IC50 (in the data set with NIH3T3; in data set [2]) were 148 µM and 24.6 µM, respectively. The LC30 in data set [1] is over 10000 µg/mL. Further, the MIC in data set [3] came out at 25 µg/mL (≈ 79.5 µM); in the data set with Bacillus subtilis it was 25 µg/mL (≈ 79.5 µM); in the data set on Staphylococcus aureus, 25 µg/mL (≈ 79.5 µM); in the data set on Pseudomonas aeruginosa it was 12.5 µg/mL (≈ 39.8 µM); in the data set with Escherichia coli, 12.5 µg/mL (≈ 39.8 µM).
As for `Sc1nnc(-c2cnccn2)n1/N=C/C=C/c1ccccc1`, the MIC in data set [3] amounted to 50 µg/mL (≈ 162 µM); with Bacillus subtilis, 25 µg/mL (≈ 81.1 µM); with Staphylococcus aureus, 50 µg/mL (≈ 162 µM); in the data set with Pseudomonas aeruginosa, 25 µg/mL (≈ 81.1 µM); in the data set with Escherichia coli, 12.5 µg/mL (≈ 40.5 µM).
For `Sc1nnc(-c2cnccn2)n1/N=C/c1ccc(Br)cc1`, the MIC in data set [3] came to 25 µg/mL (≈ 69.2 µM); in the data set on Bacillus subtilis it was 25 µg/mL (≈ 69.2 µM); in the data set with Staphylococcus aureus it was 50 µg/mL (≈ 138 µM); in the data set on Pseudomonas aeruginosa it was 50 µg/mL (≈ 138 µM); in the data set on Escherichia coli, 50 µg/mL (≈ 138 µM).
Turning to `Sc1nnc(-c2cnccn2)n1/N=C/c1ccccc1`, the minimal inhibitory concentration (MIC) in data set [3] was 50 µg/mL (≈ 177 µM); with Bacillus subtilis, 25 µg/mL (≈ 88.5 µM); with Staphylococcus aureus, 50 µg/mL (≈ 177 µM); in the data set on Pseudomonas aeruginosa it was 25 µg/mL (≈ 88.5 µM); in the data set with Escherichia coli, 25 µg/mL (≈ 88.5 µM).
With `Fc1ccc(/C=N/n2c(S)nnc2-c2cnccn2)cc1`, the minimum inhibitory concentration (MIC) is 50 µg/mL (≈ 166 µM) in data set [3]; 50 µg/mL (≈ 166 µM) with Bacillus subtilis; 50 µg/mL (≈ 166 µM) with Staphylococcus aureus; over 50 µg/mL with Pseudomonas aeruginosa; 25 µg/mL (≈ 83.2 µM) in the data set with Escherichia coli.
Take `Sc1nnc(-c2cnccn2)n1/N=C/c1ccc(Cl)cc1`: the half-inhibitory concentration (IC50) in the data set with NIH3T3 was 218 µM; in data set [2], over 100 µM. Besides, the LC30 in data set [1] is over 10000 µg/mL. Moreover, the MIC in data set [3] was 50 µg/mL (≈ 158 µM); in the data set with Bacillus subtilis, over 50 µg/mL; in the data set with Staphylococcus aureus it was 50 µg/mL (≈ 158 µM); in the data set on Pseudomonas aeruginosa it was over 50 µg/mL; in the data set on Escherichia coli, 50 µg/mL (≈ 158 µM).
With `Cc1ccc(/C=N/n2c(S)nnc2-c2cnccn2)cc1`, the IC50 with NIH3T3 was 156 µM; in data set [2] it was 27.1 µM. Moreover, the LC30 in data set [1] was over 10000 µg/mL. Also, the MIC in data set [3] was 25 µg/mL (≈ 84.4 µM); with Bacillus subtilis, 25 µg/mL (≈ 84.4 µM); in the data set on Staphylococcus aureus it was 25 µg/mL (≈ 84.4 µM); in the data set with Pseudomonas aeruginosa it was 50 µg/mL (≈ 169 µM); with Escherichia coli, 12.5 µg/mL (≈ 42.2 µM).
Take `COc1ccc(/C=N/n2c(S)nnc2-c2cnccn2)cc1`: the MIC in data set [3] came to 25 µg/mL (≈ 80 µM); in the data set on Bacillus subtilis, 50 µg/mL (≈ 160 µM); in the data set with Staphylococcus aureus, 50 µg/mL (≈ 160 µM); in the data set with Pseudomonas aeruginosa, 25 µg/mL (≈ 80 µM); in the data set with Escherichia coli, 12.5 µg/mL (≈ 40 µM).
For `Fc1ccccc1/C=N/n1c(S)nnc1-c1cnccn1`, the MIC in data set [3] stood at 50 µg/mL (≈ 166 µM); with Bacillus subtilis it was 50 µg/mL (≈ 166 µM); with Staphylococcus aureus, 50 µg/mL (≈ 166 µM); in the data set with Pseudomonas aeruginosa, 50 µg/mL (≈ 166 µM); with Escherichia coli, 25 µg/mL (≈ 83.2 µM).
On to `Fc1cccc(/C=N/n2c(S)nnc2-c2cnccn2)c1`, for which the MIC in data set [3] is 50 µg/mL (≈ 166 µM); with Bacillus subtilis, over 50 µg/mL; in the data set with Staphylococcus aureus, 50 µg/mL (≈ 166 µM); in the data set on Pseudomonas aeruginosa it was over 50 µg/mL; with Escherichia coli, 25 µg/mL (≈ 83.2 µM).
For the compound `Sc1nnc(-c2cnccn2)n1/N=C/c1ccc(Cl)cc1Cl`, the IC50 was 206 µM with NIH3T3 and over 100 µM in data set [2]. The LC30 in data set [1] was over 10000 µg/mL. Besides, the MIC in data set [3] was over 50 µg/mL; in the data set with Bacillus subtilis, over 50 µg/mL; in the data set with Staphylococcus aureus it was 50 µg/mL (≈ 142 µM); in the data set with Pseudomonas aeruginosa it was over 50 µg/mL; with Escherichia coli, 50 µg/mL (≈ 142 µM).
With `NC[C@H]1O[C@H](O[C@H]2[C@H](O)[C@@H](O[C@H]3O[C@H](CO)[C@@H](O)[C@H](N)[C@H]3O)[C@H](N)C[C@@H]2N)[C@H](N)[C@@H](O)[C@@H]1O` [BEKANAMYCIN], the 50% inhibitory concentration (IC50) in the data set on NIH3T3 is 140 µM; in data set [2], 6.3 µM. For the same compound, the LC30 in data set [1] was over 10000 µg/mL. For the same compound, the MIC in data set [3] was found to be 1.56 µg/mL (≈ 3.23 µM); in the data set with Bacillus subtilis it was 3.13 µg/mL (≈ 6.47 µM); in the data set on Staphylococcus aureus, 1.56 µg/mL (≈ 3.23 µM); in the data set with Pseudomonas aeruginosa, 1.56 µg/mL (≈ 3.23 µM); in the data set on Escherichia coli it was 3.13 µg/mL (≈ 6.47 µM).
